pKd: −log10 of the molar value.

In the assay the target is T1, GTP/GDP carrier (GGC) from yeast mitochondria (Saccharomyces cerevisiae, UniProt P38988).
T1 sequence (P38988 1-300): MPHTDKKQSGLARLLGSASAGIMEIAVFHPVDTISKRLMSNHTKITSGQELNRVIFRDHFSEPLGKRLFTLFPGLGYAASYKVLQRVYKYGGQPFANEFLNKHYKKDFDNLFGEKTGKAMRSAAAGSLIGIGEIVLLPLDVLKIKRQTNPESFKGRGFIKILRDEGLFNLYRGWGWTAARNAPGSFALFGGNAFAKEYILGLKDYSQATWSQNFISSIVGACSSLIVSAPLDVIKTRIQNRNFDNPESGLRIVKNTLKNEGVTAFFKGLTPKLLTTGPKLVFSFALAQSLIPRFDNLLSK
The experiment in a line: NMR chemical shift perturbation titration, 3D TROSY HNCO. The format is binding.

For the molecule `Nc1nc2c(ncn2[C@@H]2O[C@H](COP(=O)(O)OP(=O)(O)O)[C@@H](O)[C@H]2O)c(=O)[nH]1` [GDP], the pKd (usually −log10 of the Kd, conventionally taken in molar units) is 1.64.

`Nc1nc2c(ncn2[C@@H]2O[C@H](COP(=O)(O)OP(=O)(O)OP(=O)(O)O)[C@@H](O)[C@H]2O)c(=O)[nH]1` [GTP]: the pKd is 2.18.
